Reference: patent publication US8067189B2, “Methods for determining sensitivity to vascular endothelial growth factor receptor-2 modulators by measuring the level of collagen type IV” (Bristol-Myers Squibb Company, priority 2005, dated 2011)

Experiments:
Collagen type IV = Collagen type IV ELISA of blood (plasma) from cancer patients, clinical study CA182-002; format: in vivo, human
Description: (§1) Blood samples (plasma) for ELISA analysis were obtained from Bristol-Myers Squibb Co. sponsored clinical study CA182-002, which is a phase I dose escalation study to determine the safety, pharmacokinetic, and pharmacodynamics of the example VEGFR-2 inhibitor in patients with advanced or metastatic solid tumors. Blood samples were drawn from patients at screening, pre-dose, and post-dose at 4 hours, Day 1, Day 8, Day 26, and end of treatment. Approximately 60 ml of blood was collected for the protocol specific sampling. Detailed instructions regarding the collection, processing, labeling, handling, storage, and shipment of the specimens were provided in the CA182-002 Laboratory Manual.
An ELISA method for the detection and measurement of Collagen Type IV and VE-Cadherin on human plasma or any biological sample where the proteins must be detected and measured is described. For collagen type IV ELISA, the kit was provided by Kamiya biomedical company (cat no. KT-035) and the principle method of the assay, a solid phase one-step sandwich ELISA, was as follows. Collagen Type IV in the sample was bound simultaneously by a solid phase monoclonal antibody and a monoclonal antibody-enzyme conjugate, each directed at a different antigenic site. […] After removing unbound enzyme-labeled antibody and samples, the plate was incubated with the enzyme substrate 3,3′,5,5′-tetramethylhylbenzidine (TMB). The resultant color development was directly proportional to the amount of collagen IV in the sample. The reaction was terminated by addition of acid and absorbance was measured at 450 nm. A standard curve was prepared from collagen type IV standard dilutions and collagen type IV samples concentration determined. For VE-Cadherin ELISA, the kit provided by Bender Medsystems (cat no. BMS253) was used and the principle method of the assay was as follows. An anti-VE-cadherin coating antibody was adsorbed onto the microwells. VE-cadherin present in the sample bound to antibodies adsorbed to the microwells; a biotin conjugated anti-VE-cadherin antibody was added and bound to VE-cadherin captured by the first antibody. Following incubation, unbound biotin conjugated anti-VE-cadherin was removed during a wash step. Streptavidin-HRP was added and bound to the biotin conjugated anti-VE-cadherin. Following incubation, unbound streptavidin-HRP was removed during a wash step and substrate solution reactive with HRP was added to the wells. A colored product was formed in proportion to the amount of VE-cadherin present in the sample. The reaction was terminated by addition of acid and absorbance was measured at 450 nm. A standard curve was prepared from VE-cadherin standard dilutions and VE-cadherin samples concentration determined.
Based on the pre-clinical studies, the Collagen type IV ELISA kit was examined as a potential molecular assay to monitor response and validate its expression on specimens obtained from cancer patients who received the example VEGFR-2 inhibitor. Biological samples from twelve cancer patients treated with the example VEGFR-2 inhibitor in protocol CA182002, which is a single agent dose escalation study, three patients each at 180 mg/day, 320 mg/day, 600 mg/day and 800 mg/day, were examined. Collagen Type IV blood levels were determined by an ELISA based assay for each patient at Day 0 (before therapy) and at Day 26 (after treatment). Collagen type IV levels increased on average by 24% at Day 26 in the 180 mg/day cohort; it increased on average only by 7% at Day 26 in the 320 mg/day cohort. In the 600 mg/day cohort, it was reduced on average by 26% at Day 26. In the 800 mg/day cohort, it was reduced only marginally, when compared to the 600 mg/day cohort, by 29% at Day 26.
Collagen type IV ELISA assays were also examined to see if collagen type IV was useful as a biomarker for clinical response to the example VEGFR-2 inhibitor. […] The reduction in collagen type IV blood levels correlated with clinical evidence of anti-tumor activity. […]

[1] = system: advanced or metastatic solid tumors; assay: Clinical response in phase I dose escalation study CA182-002; format: in vivo, human; conditions: 600 mg/day
Description: as §1
Collagen type IV ELISA assays were also examined to see if collagen type IV was useful as a biomarker for clinical response to the example VEGFR-2 inhibitor. […] The reduction in collagen type IV blood levels correlated with clinical evidence of anti-tumor activity. […] Overall, the clinical results from these two evaluable patients confirm the pre-clinical data and indicate that collagen type IV ELISA assay is a clinically useful method to monitor response to a VEGFR-2 modulator(s) such as the example VEGFR-2 inhibitor.

Cc1cc2c(F)c(Oc3ncnn4cc(OC[C@@H](C)OC(=O)[C@H](C)N)c(C)c34)ccc2[nH]1 [example VEGFR-2 inhibitor, [(1R),2S]-2-Aminopropionic acid 2-[4-(4-fluoro-2-methyl-1H-indol-5-yloxy)-5-methylpyrrolo[2,1-f][1,2,4]triazin-6-yloxy]-1-methylethyl ester]
Collagen type IV levels increased on average by (Collagen type IV; 180 mg/day cohort, three patients, Day 26 vs Day 0): 24% | Collagen type IV levels increased on average by (Collagen type IV; 320 mg/day cohort, three patients, Day 26 vs Day 0): 7% | Collagen type IV levels reduced on average by (Collagen type IV; 600 mg/day cohort, three patients, Day 26 vs Day 0): 26% | Collagen type IV levels reduced by (Collagen type IV; 800 mg/day cohort, three patients, Day 26 vs Day 0): 29% | reduction in collagen type IV levels (Collagen type IV; another patient, 600 mg/day, between Day 0 and Day 26, P=0.632): no significant reduction | collagen type IV blood levels reduced (Collagen type IV; one patient with ampulla of vater carcinoma, 600 mg/day, between Day 0 and Day 26, P=0.006): > 50% | clinical response ([1]; another patient): did not achieve a clinical response | time patient was on therapy ([1]; another patient, no clinical response): 32 days | clinical response ([1]; one patient with ampulla of vater carcinoma): partial response | time patient remained on therapy ([1]; one patient with ampulla of vater carcinoma, partial response): 126 days
